In BindingDB's records for doi:10.7270/Q2JQ0ZGP (Nmmlsc, 2010):

Target: 60S ribosomal protein L19-A (Saccharomyces cerevisiae (strain ATCC 204508 / S288c), UniProt P0CX82)
Assay: RPL19A GFP fusion protein, TOR pathway, Saccharomyces cerevisiae, dose response (AID 2740)

Sequence of 60S ribosomal protein L19-A (P0CX82 whole entry, the tested form may be a part): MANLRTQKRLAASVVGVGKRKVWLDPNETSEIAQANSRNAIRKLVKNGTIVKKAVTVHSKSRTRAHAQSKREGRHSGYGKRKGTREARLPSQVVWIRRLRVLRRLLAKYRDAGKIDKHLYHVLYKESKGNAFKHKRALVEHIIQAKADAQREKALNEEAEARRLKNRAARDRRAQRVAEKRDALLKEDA

| SMILES | EC50 [µM] |
| --- | --- |
| O=C1NC(=S)NC(=O)C1=Cc1ccc2c(c1)CCN2CCCCl [5-[[1-(3-chloropropyl)-2,3-dihydroindol-5-yl]methylidene]-2-sulfanylidene-1,3-diazinane-4,6-dione] | > 33 |
| CS(=O)(=O)c1nc(-c2cccs2)cc(C(F)(F)F)n1 [MLS000044645] | > 33 |
